Laboratory results published in US20130052654A1, “Amyloid Precursor Protein E2 Domain and Uses Thereof” (Leibniz Institute For Age Research - Fritz Lipmann …, priority 2011, published 2013).
Values joined by “and” are separate entries in the source; they are usually repeats but may differ in a detail not shown here. Equal values may be shown once. Read-outs that look alike come from different tables or passages of the source. Marks after values point to notes of the source that are not given here.

Columns and labels:
[1] = target: T1, APP-E2 (Homo sapiens, UniProt P05067); assay: Metal retention assay (ultrafiltration); assay type: binding; settings: 50 μM APP-E2, 75 μM metal, concentrated 8-fold
T1 construct: APP-E2 comprising Ser295-Asp500 (numbering according to APP695); hexa-histidine tag (C, cleaved yes); made in house; host or cells: E. coli BL21(DE3)pRIL
Procedure: 50 μM APP-E2 (without His-tag) and 75 μM CuCl2 in 50 mM Tris/HCl pH 7.3, 150 mM NaCl or 75 μM ZnCl2 in 20 mM Hepes/NaOH pH 7.3, 150 mM NaCl was concentrated 8-fold at 20° C. using Vivaspin 500 ultrafiltration devices with 5.000 MWCO PES membranes (Sartorius stedim biotech). Samples without protein, or containing 50 μM lysozyme instead of APP-E2, served as controls. Metal ions in the retenate were quantified by a spectrophotometric method (Sabel et al., 2010). Each experiment was performed in triplicate and the average ratio of the change in concentration relative to the starting concentration (c-c0/c0) was plotted.

[2] = target: T2, full length APP (Homo sapiens, UniProt P05067); settings: cited from earlier work
T2 construct: previously reported for full length APP (0.75 μM) (Bush et al., 1993)
T2 sequence (P05067 18-770, species assumed): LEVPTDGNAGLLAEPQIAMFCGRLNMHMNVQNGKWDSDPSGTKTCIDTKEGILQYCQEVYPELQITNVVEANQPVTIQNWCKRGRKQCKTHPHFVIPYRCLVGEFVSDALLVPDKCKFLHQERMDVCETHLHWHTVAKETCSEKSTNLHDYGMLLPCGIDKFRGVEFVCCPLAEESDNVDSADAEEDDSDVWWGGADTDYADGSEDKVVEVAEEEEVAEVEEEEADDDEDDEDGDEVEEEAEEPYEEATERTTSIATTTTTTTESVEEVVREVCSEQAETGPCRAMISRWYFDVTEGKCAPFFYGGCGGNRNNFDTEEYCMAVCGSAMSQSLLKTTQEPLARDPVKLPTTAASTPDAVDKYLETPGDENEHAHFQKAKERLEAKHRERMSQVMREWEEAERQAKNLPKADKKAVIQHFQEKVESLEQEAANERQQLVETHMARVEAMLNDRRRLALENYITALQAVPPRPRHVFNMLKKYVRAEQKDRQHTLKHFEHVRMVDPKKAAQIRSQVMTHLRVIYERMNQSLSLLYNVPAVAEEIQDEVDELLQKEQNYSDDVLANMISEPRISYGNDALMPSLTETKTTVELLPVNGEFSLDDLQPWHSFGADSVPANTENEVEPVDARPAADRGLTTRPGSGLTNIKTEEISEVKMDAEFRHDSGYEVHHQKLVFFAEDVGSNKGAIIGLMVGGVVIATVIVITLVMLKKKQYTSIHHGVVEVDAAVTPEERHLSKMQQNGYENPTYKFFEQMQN

[3] = target: T1, APP-E2; assay: CD-spectroscopy melting curves of APP-E2 at 222 nm; assay type: binding; settings: 7.5 μM APP-E2, 10 μM metal; inflection point of CD melting curve at 222 nm
Procedure: CD-data were collected on a J-710 spectropolarimeter (Jasco Corporation) in the same buffers used for ITC binding studies adding 7.5 μM APP-E2 and 10 μM zinc or copper. CD-signals were measured at 222 nm upon heating (1° C./min) of the samples from 20° C. to 90° C. The blank signals produced by the buffers at 20° C. were subtracted as constant values from the melting curves. Indicated melting points correspond to the inflection points of the melting curves determined from the peak of the 1st order derivative calculated using spectra analysis software (Jasco Corporation).

[4] = target: T1, APP-E2; assay: Isothermal titration calorimetry (ITC) of metal binding to APP-E2; settings: for n1: ITC stoichiometry, first site; for dH1: Cu in Tris, Zn in Hepes, pH 7.3
Procedure: ITC was performed at the same conditions as the metal retention assays in a NANO ITC calorimeter (TA Instruments, USA) adding 0.4 mM CuCl2 in 6 μl injections or 0.4 mM ZnCl2 in 11 μl injections to the cell containing 40 μM protein. Blank enthalphies for titrations of metals in buffer were subtracted from peak integrals. Binding constants were calculated with the NanoAnalyze program (TA Instruments, USA) using a model for a single set of identical binding sites in the case of copper binding. In the case of zinc binding the enthalpic data were fitted to a binding model representing two sets of independent binding sites, accounting for 1 strong binding site and 3.3 weak binding sites (4.3 total Zn^2+ sites) per protein molecule (for further details see supplementary data). All titrations were performed in triplicate. The initially determined KDapp of the APP-E2/Cu complex had to be corrected for competition with the copper ligand Tris (Hatcher et al., 2008) and its pH-dependent protonation. The exact coordination chemistry of Cu^2+ by Tris is, unfortunately, not precisely known, e.g. tertiary Cu(Tris)2 and quinary Cu(Tris)4 complexes are described in the literature. However, all models agree about the formation of a binary Tris-Cu^2+ complex, described by a formation constant pK1(Tris) of ˜4. The corrected KD was calculated according to KD=KDapp(1+ cTris×10^pK^1(Tris)/(1+10^−pH×Ka))^−1 using pK1(Tris)=3.82 (Canepari et al., 1999) and pKa(Tris)=8.1.
The effect of excessive zinc to protein ratios was studied in ITC experiments in three repeating titrations into the same cell solution. Titration was performed in 20 mM Hepes/NaOH pH 7.3, 150 mM NaCl at 20° C., adding a 0.8 mM ZnCl2 solution in 3×22 injections to 40 μM APP-E2, resulting in a final Zn^2+/protein ratio of 22. The molar ratios for titration experiment 2 and 3 were calculated neglecting intermixture of cell volume and slight volume changes occurring after refill of the syringe. Blank enthalphies for titrations of metals in buffer were subtracted from peak integrals.

[5] = target: T1, APP-E2; assay: Limited proteolysis with Trypsin; assay type: biochemical; settings: 40 μM metal, 20 μM protein, 0.5 μg/ml Trypsin
Procedure: Limited proteolysis was performed in 20 mM HEPES, 150 mM NaCl at pH 7.4 containing 0.5 μg/ml Trypsin (Calbiochem) and 20 μM purified protein (α-casein as control). Copper or zinc were supplemented at 40 μM to the Samples. Reactions were stopped after 30 and […] by addition of 10 mM PMSF and analyzed by SDS-PAGE. Protease cleavage sites were characterized by Edman sequencing (Procise 494A, Applied Biosystems, Foster City, Calif., USA). Limited proteolysis results shown were reproduced in three independent experiments.

[6] = target: T1, APP-E2; assay: Determination of total Zn2+ binding sites on APP-E2
Procedure: The protein was saturated with 10 mM ZnCl2 in 20 mM Hepes/NaOH pH 7.3, 150 mM NaCl resulting in quantitative precipitated of the protein. The precipitate was washed with buffer until a stable equilibrium ratio of zinc saturated protein in the liquid phase and the solid phase was reached. The concentration of Zn (Sabel et al., 2010) and protein (Bradford, 1976) were determined after each wash step in the liquid phase (supernatant) after […] centrifugation at 16,000 g. The ratio between [Zn^2+] and [APP-E2] at equilibrium conditions corresponds to the total number of zinc binding sites per protein molecule, which was determined to be 4.3+/−0.2 (FIG. 10B). Subtraction of one strong intra-molecular binding site yields the number of intermolecular binding sites of as 3.3.

[7] = target: T1, APP-E2; assay: GPC and GPC coupled SLS, oligomerization state with heparin; assay type: binding; settings: 50 μM APP-E2, 100 μM heparin; for MWSLS of APP-E2: GPC coupled SLS, absolute molecular weight; for MWrh of APP-E2: GPC, apparent molecular weight
Procedure: Analytical GPC and SLS studies were performed in 150 mM NaCl, 10 mM Sodium phosphate buffer, pH 7.3, on a calibrated (MWGF70, Sigma) Superdex200 10/300 GL column (GE Healthcare) using 50 μM APP-E2. Where applicable, a ˜3.6 kDa heparin preparation (Reviparin-Sodium, Abott) was added at 100 μM to the protein and the buffer. SLS data were recorded using VE 3580 RI and 270 Dual detectors (Viscotek, USA) and analyzed using software provided by the manufacturer. Given data represent average values±standard deviation of three independent experiments.

[8] = target: the molecule itself; assay: gel permeation chromatography and GPC-coupled static light scattering, without and with low molecular weight heparin (self-association test)
Procedure: All intermolecular contacts identified in the crystals analysed with the PISA server (Krissinel and Henrick, 2007) result from crystal packing, evidenced by the calculated complexation significance scores (CSS) that are equal to 0. Consequently, the protomer contacts are predominantly stabilized by the intermolecular coordinated cadmium ions. […] To investigate this observation further, the apparent molecular weight was determined based on the hydrodynamic radius (MWᵣₕ) using gel permeation chromatography (GPC) as well as the absolute molecular weight (MWSLS) employing GPC coupled static light scattering (SLS; Supplementary Figure S2). […] The influence of heparin on the oligomerization state of the E2 domain, which was described to promote dimer formation (Lee et al., 2011), was tested.

## [Cu+2] [Cu^2+, copper]
[1]
  retention of metal ions upon APP-E2 concentration: accumulated in the retenate
[2]; Hesse et al., 1994, read-out: dissociation constant for full length APP (copper)
  Kd: 0.01 µM
[3]
  melting temperature of APP-E2: 61.0±0.0 °C
[4]
  n1: 0.70 ± 0.03
[4]; ITC
  dH1: -4.76 ± 0.22 kcal/mol
[4]; intersection point with the ordinate, 15-75 mM Tris, read-out: KD from linear extrapolation of apparent KD as function of Tris concentration
  Kd: ~0.02 µM
[4]; minimal model of a Cu2+-Tris 1:1 complex, upper (weakest) limit, listed as copper, read-out: KD corrected for Tris competition
  Kd: ≤ 0.013 µM
[4]; minimal model of a Cu2+-Tris 1:1 complex, upper (weakest) limit, read-out: KD corrected for Tris competition
  Kd: < 0.013 µM
[5]
  effect on Trypsin cleavage of APP-E2: stabilizes especially fragment 1

## [Zn+2] [Zn^2+, zinc]
[1]
  retention of metal ions upon APP-E2 concentration: accumulated in the retenate
[6]; ratio [Zn2+]/[APP-E2] at equilibrium after wash steps
  total number of zinc binding sites per protein molecule: 4.3+/−0.2 and 4.3
[6]; total minus one strong intramolecular site
  number of weak (intermolecular) zinc binding sites: 3.3
[2]; Bush et al., 1993, read-out: dissociation constant for full length APP (zinc)
  Kd: 0.75 µM
[3]
  melting temperature of APP-E2: 64.2±0.3 °C
[4]; ITC competition
  exothermic zinc binding reaction with copper pre-saturated APP-E2: completely missing
[4]
  n1: 0.7 ± 0.2
[4]; ITC, 20 mM Hepes/NaOH pH 7.3, 150 mM NaCl, two sets of independent sites, strong site, listed as zinc, read-out: KD1, Zn-APP-E2
  Kd: ≤ 3.9 µM
[4]; ITC, 20 mM Hepes/NaOH pH 7.3, 150 mM NaCl, two sets of independent sites, strong site, read-out: KD1, Zn-APP-E2
  Kd: 3.9 ± 1.5 µM
[4]; ITC, Hepes pH 7.3, weak sites, not statistically significant in curve fit, listed as zinc, read-out: KD2, Zn-APP-E2
  Kd: ≤ 2600 µM
[4]; ITC, Hepes pH 7.3, weak sites, not statistically significant in curve fit, read-out: KD2, Zn-APP-E2
  Kd: 2600 µM
[4]; ITC
  dH1: -3.97 ± 0.14 kcal/mol
[4]; weak sites, determined independently and fixed during curve fit
  n2: 3.3^b
[5]
  effect on Trypsin cleavage of APP-E2: Trypsin cleavage at Arg385 completely disappeared

## Reviparin-Sodium [HP]
[7]
  MWSLS of APP-E2: 31.6 ± 0.2 kDa
  MWrh of APP-E2: 39.2 ± 0.4 kDa
[7]; listed as Clivarin
  MWSLS of APP-E2: 31.6 kDa
  MWrh of APP-E2: 39.2 kDa

B1: APP-E2 comprising Ser295-Asp500 (numbering according to APP695) (other)
chain: STPDAVDKYLETPGDENEHAHFQKAKERLEAKHRERMSQVMREWEEAERQAKNLPKADKKAVIQHFQEKVESLEQEAANERQQLVETHMARVEAMLNDRRRLALENYITALQAVPPRPRHVFNMLKKYVRAEQKDRQHTLKHFEHVRMVDPKKAAQIRSQVMTHLRVIYERMNQSLSLLYNVPAVAEEIQDEVDELLQKEQNYSDD
notes: The C-terminal His tag was cleaved for the biochemical studies; also called E2 domain; human APP-E2 domain; not shown: a few non-native C-terminal residues left after the hexa-histidine tag was cleaved off (factor Xa or V8 protease); their
[8]
  binding result: no binding (tested: 50 µM APP-E2)
